{"source": "patent EP4527946A1", "about": "“METHOD FOR PREDICTING THE RESPONSE TO A DUAL S[…] KINASE TTK INHIBITOR THERAPY” (Pangaea Oncology, S.A, priority 2023, dated 2025)", "key": {"PC9-ER and PC-GR4 clones": {"system": "PC9-ER and PC-GR4 clones", "test": "Flow cytometry (cell cycle, annexin V/PI) in clones", "type": "cell-based", "details": "50 nM", "description": "(§1) For cell cycle analyses, cells were plated in T-25 flasks, allowed to attach, treated with drugs in RPMI 1640 + 10% FBS, trypsinised and centrifuged. Cell pellets were resuspended in PBS, fixed in 70% ethanol and incubated o/n at -20 °C. Fixed cells were subsequently re-centrifuged at 400 xg for 5 min at 4 °C; resuspended in 250 µL of PBS with 50 µg/mL RNAse A (Sigma Aldrich, Saint Louis, MO), incubated for 1 h at 37 °C and stained with propidium iodide (PI) (Roche Diagnostics, Basel, Switzerland) for 30 min at room temperature.\n(§2) For cell death analyses, the Annexin-V-FLUOS (An) staining kit (Roche Diagnostics) was employed, according to the manufacturer's instructions. Stained cells were sorted with a FACSCanto II cytometer (BD Biosciences, Franklin Lakes, NJ) using the FACSDiva software version 6.1.2. The combination of Annexin V and PI was used to differentiate four cell populations; viable cells (An -/PI-), early apoptotic (An+/PI-), necrotic (An-/PI+) and later apoptotic/necrotic (An+/PI+)."}, "PC9-ER": {"system": "PC9-ER", "test": "cells", "details": "Homo sapiens, PC-9/ER, read-out: IC50s", "description": "(§3) Each concentration of drug was tested in sextuplicates. […] Data were derived from at least two independent experiments. […]"}, "[1]": {"system": "EGFR TKI-resistant clones derived from the PC9 cell line and from 11-18 cells", "test": "Dose-response (cell viability) in EGFR TKI-resistant clones", "type": "cell-based", "details": "Homo sapiens", "source_text": "All parental cell lines used in the study were purchased from the ATCC or other cell banks, with the exception of PC9 and 11-18. Parental PC9 cells were provided by F. Hoffman-La Roche Ltd (Basel, Switzerland) with the authorization of Dr. Mayumi Ono (Kyushu University, Fukuoka, Japan); while parental 11-18 cells were kindly provided by Dr. Mayumi Ono. Resistant cells were derived by exposing parental cells to EGFR TKIs, as described in [Bertran-Alamillo et al., (2019) AURKB as a target in non-small cell lung cancer with acquired resistance to anti-EGFR therapy. Nat Commun 10, 1812, and Jacobsen K, et al., (2017) Convergent Akt activation drives acquired EGFR inhibitor resistance in lung cancer. […] All tumor cells were grown in a humidified atmosphere with 5% CO2 at 37°C in RPMI 1640 + 10% fetal bovine serum (FBS), 50 µg/mL penicillin-streptomycin and 2 mM L-Glutamine. Cell lines were routinely tested for mycoplasma contamination and authenticated by analyzing >20 polymorphisms using a 30-gene panel NGS.\nas §3"}, "A549": {"system": "A549", "test": "Cell viability (MTT) assay", "type": "cell-based", "details": "Homo sapiens, A549, origin LA, Td 22 h, drug for 2-3 doubling times", "description": "as §3"}, "SK-OV-3": {"system": "SK-OV-3", "test": "Cell viability (MTT) assay", "type": "cell-based", "details": "Homo sapiens, SK-OV-3, origin Ovarian, Td 48 h, drug for 2-3 doubling times", "description": "as §3"}, "MDA-MB-468": {"system": "MDA-MB-468", "test": "Cell viability (MTT) assay", "type": "cell-based", "details": "Homo sapiens, MDA-MB-468, origin Breast, Td 35 h, drug for 2-3 doubling times", "description": "as §3"}, "T98G": {"system": "T98G", "test": "Cell viability (MTT) assay", "type": "cell-based", "details": "Homo sapiens, origin GB, Td 22 h, drug for 2-3 doubling times", "description": "as §3"}, "DU-145": {"system": "DU-145", "test": "Cell viability (MTT) assay", "type": "cell-based", "details": "Homo sapiens, DU-145, origin Pr, Td 30 h, drug for 2-3 doubling times", "description": "as §3"}, "RT-112": {"system": "RT-112", "test": "Cell viability (MTT) assay", "type": "cell-based", "details": "Homo sapiens, RT-112, origin UB, Td 24 h, drug for 2-3 doubling times", "description": "as §3"}, "HCC78": {"system": "HCC78", "test": "Cell viability (MTT) assay", "type": "cell-based", "details": "Homo sapiens, HCC78, origin LA, Td 38 h, drug for 2-3 doubling times", "description": "as §3"}, "NCI-H23": {"system": "NCI-H23", "test": "Cell viability (MTT) assay", "type": "cell-based", "details": "Homo sapiens, NCI-H23, origin LA, Td 38 h, drug for 2-3 doubling times", "description": "as §3"}, "NCI-H3122": {"system": "NCI-H3122", "test": "Cell viability (MTT) assay", "type": "cell-based", "details": "Homo sapiens, NCI-H3122, origin LA, Td 49 h, drug for 2-3 doubling times", "description": "as §3"}, "HCC366": {"system": "HCC366", "test": "Cell viability (MTT) assay", "type": "cell-based", "details": "HCC366, origin LA, Td 65 h, drug for 2-3 doubling times", "description": "as §3"}, "MIA-PaCa-2": {"system": "MIA-PaCa-2", "test": "Cell viability (MTT) assay", "type": "cell-based", "details": "Homo sapiens, MIA-PaCa-2, origin Pancreas, Td 26 h, drug for 2-3 doubling times", "description": "as §3"}, "NCI-H1819": {"system": "NCI-H1819", "test": "Cell viability (MTT) assay", "type": "cell-based", "details": "NCI-H1819, origin LA, Td 51 h, drug for 2-3 doubling times", "description": "as §3"}, "NCI-H2228": {"system": "NCI-H2228", "test": "Cell viability (MTT) assay", "type": "cell-based", "details": "Homo sapiens, NCI-H2228, origin LA, Td 96 h, drug for 2-3 doubling times", "description": "as §3"}, "SK-MES-1": {"system": "SK-MES-1", "test": "Cell viability (MTT) assay", "type": "cell-based", "details": "Homo sapiens, SK-MES-1, origin LS, Td 50 h, drug for 2-3 doubling times", "description": "as §3"}, "FADU": {"system": "FADU", "test": "Cell viability (MTT) assay", "type": "cell-based", "details": "Homo sapiens, origin HNSCC, Td 30 h, drug for 2-3 doubling times", "description": "as §3"}, "MDA-MB-231": {"system": "MDA-MB-231", "test": "Cell viability (MTT) assay", "type": "cell-based", "details": "Homo sapiens, MDA-MB-231, origin Breast, Td 25 h, drug for 2-3 doubling times", "description": "as §3"}, "NCI-H1975": {"system": "NCI-H1975", "test": "Cell viability (MTT) assay", "type": "cell-based", "details": "Homo sapiens, NCI-H1975, origin LA, Td 39 h, drug for 2-3 doubling times", "description": "as §3"}, "WM793": {"system": "WM793", "test": "Cell viability (MTT) assay", "type": "cell-based", "details": "Homo sapiens, WM793, origin Melan., Td 48 h, drug for 2-3 doubling times", "description": "as §3"}, "EBC-1": {"system": "EBC-1", "test": "Cell viability (MTT) assay", "type": "cell-based", "details": "Homo sapiens, EBC-1, origin LS, Td 42 h, drug for 2-3 doubling times", "description": "as §3"}, "SNU-C1": {"system": "SNU-C1", "test": "Cell viability (MTT) assay", "type": "cell-based", "details": "Homo sapiens, SNU-C1, origin Colon, Td 31 h, drug for 2-3 doubling times", "description": "as §3"}, "LC-2/ad": {"system": "LC-2/ad", "test": "Cell viability (MTT) assay", "type": "cell-based", "details": "Homo sapiens, origin LA, Td 58 h, drug for 2-3 doubling times", "description": "as §3"}, "NCl-H1819 cells": {"system": "NCl-H1819 cells", "test": "Flow cytometry (cell cycle, Annexin V)", "type": "cell-based", "details": "TTKi sensitive NCl-H1819 cells", "description": "as §1, §2"}}, "data": [{"smiles": "COc1ccc(Oc2cc(NCCC(F)(F)F)c3ncc(-c4ccc(C(=O)NC5CC5)c(C)c4)n3n2)c(F)c1F", "note": "[BAY1217389]", "values": [{"measurement": "effect after G2/M arrest (flow cytometry)", "setting": "PC9-ER and PC-GR4 clones; resistant clones", "result": "extensive polyploidy"}, {"measurement": "effect after G2/M arrest (flow cytometry)", "setting": "PC9-ER and PC-GR4 clones; sensitive clones", "result": "cell death"}, {"measurement": "IC50", "setting": "PC9-ER", "result": "> 10000", "unit": "nM"}, {"measurement": "IC50", "setting": "[1]; PC-9, six clones sensitive to the TTKi", "result": "< 1", "unit": "nM"}, {"measurement": "IC50", "setting": "[1]; PC-9, twelve TTKi resistant clones", "result": "> 200", "unit": "nM"}, {"measurement": "IC50", "setting": "A549", "result": "> 1000", "unit": "nM"}, {"measurement": "IC50", "setting": "SK-OV-3", "result": "> 1000", "unit": "nM"}, {"measurement": "IC50", "setting": "MDA-MB-468", "result": "4.1 ± 0.3", "unit": "nM"}, {"measurement": "IC50", "setting": "T98G", "result": "> 1000", "unit": "nM"}, {"measurement": "IC50", "setting": "DU-145", "result": "> 1000", "unit": "nM"}, {"measurement": "IC50", "setting": "RT-112", "result": "3.8 ± 0.3", "unit": "nM"}, {"measurement": "IC50", "setting": "HCC78", "result": "> 1000", "unit": "nM"}, {"measurement": "IC50", "setting": "NCI-H23", "result": "> 1000", "unit": "nM"}, {"measurement": "IC50", "setting": "NCI-H3122", "result": "7.2 ± 0.5", "unit": "nM"}, {"measurement": "IC50", "setting": "HCC366", "result": "> 1000", "unit": "nM"}, {"measurement": "IC50", "setting": "MIA-PaCa-2", "result": "> 1000", "unit": "nM"}, {"measurement": "IC50", "setting": "NCI-H1819", "result": "2.6 ± 0.3", "unit": "nM"}, {"measurement": "IC50", "setting": "NCI-H2228", "result": "> 1000", "unit": "nM"}, {"measurement": "IC50", "setting": "SK-MES-1", "result": "> 1000", "unit": "nM"}, {"measurement": "IC50", "setting": "FADU", "result": "> 1000", "unit": "nM"}, {"measurement": "IC50", "setting": "MDA-MB-231", "result": "> 1000", "unit": "nM"}, {"measurement": "IC50", "setting": "NCI-H1975", "result": "> 1000", "unit": "nM"}, {"measurement": "IC50", "setting": "WM793", "result": "> 1000", "unit": "nM"}, {"measurement": "IC50", "setting": "EBC-1", "result": "4.6 ± 0.6", "unit": "nM"}, {"measurement": "IC50", "setting": "SNU-C1", "result": "> 1000", "unit": "nM"}, {"measurement": "IC50", "setting": "LC-2/ad", "result": "3.6 ± 0.3", "unit": "nM"}, {"measurement": "cell death (Annexin V)", "setting": "NCl-H1819 cells", "result": "extensive induction of cell death"}, {"measurement": "cell cycle effect (flow cytometry)", "setting": "NCl-H1819 cells; 50 nM", "result": "G2/M arrest"}]}]}
